Experimental data reported in PMC12777571, “The molecular basis of intrinsic resistance to azoles in Rhizopus arrhizus” (Antimicrobial Agents and Chemotherapy, 2025).
Read-outs that look alike come from different tables or passages of the source.

Key:
[1] = biological target: T1, RaCYP51-F5 + RaCPR (strain Y-F5/CPR and variants) (Rhizopus delemar, UniProt I1CTV4, A291V); test: inhibition of BOMCC hydrolysis in crude membranes, fluorescence; format: biochemical
T1 construct: gene RO3G_16595; full-length, codon-optimized, C-terminal GGR linker and 6xHis; co-expressed with 6xHis RaCPR in S. cerevisiae ADΔΔ deleted of native ERG11; crude membranes; ~60 kDa; with NADPH--cytochrome P450 reductase
T1 sequence (I1CTV4 whole entry, stated change not applied): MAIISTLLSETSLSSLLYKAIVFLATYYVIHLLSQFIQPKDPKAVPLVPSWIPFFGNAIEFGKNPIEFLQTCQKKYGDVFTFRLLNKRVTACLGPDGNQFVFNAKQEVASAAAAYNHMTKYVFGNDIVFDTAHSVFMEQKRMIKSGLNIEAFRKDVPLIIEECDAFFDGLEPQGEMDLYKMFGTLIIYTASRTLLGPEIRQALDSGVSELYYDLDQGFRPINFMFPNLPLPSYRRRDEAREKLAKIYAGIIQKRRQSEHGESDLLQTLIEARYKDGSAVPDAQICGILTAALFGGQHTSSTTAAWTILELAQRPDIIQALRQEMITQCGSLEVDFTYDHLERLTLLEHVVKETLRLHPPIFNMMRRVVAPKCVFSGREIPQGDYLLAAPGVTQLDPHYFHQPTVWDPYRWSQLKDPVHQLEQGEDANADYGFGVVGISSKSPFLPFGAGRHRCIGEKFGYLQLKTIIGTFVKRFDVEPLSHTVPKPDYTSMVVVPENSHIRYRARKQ
T1 sequence (I1CM61 whole entry, stated change not applied, further chain): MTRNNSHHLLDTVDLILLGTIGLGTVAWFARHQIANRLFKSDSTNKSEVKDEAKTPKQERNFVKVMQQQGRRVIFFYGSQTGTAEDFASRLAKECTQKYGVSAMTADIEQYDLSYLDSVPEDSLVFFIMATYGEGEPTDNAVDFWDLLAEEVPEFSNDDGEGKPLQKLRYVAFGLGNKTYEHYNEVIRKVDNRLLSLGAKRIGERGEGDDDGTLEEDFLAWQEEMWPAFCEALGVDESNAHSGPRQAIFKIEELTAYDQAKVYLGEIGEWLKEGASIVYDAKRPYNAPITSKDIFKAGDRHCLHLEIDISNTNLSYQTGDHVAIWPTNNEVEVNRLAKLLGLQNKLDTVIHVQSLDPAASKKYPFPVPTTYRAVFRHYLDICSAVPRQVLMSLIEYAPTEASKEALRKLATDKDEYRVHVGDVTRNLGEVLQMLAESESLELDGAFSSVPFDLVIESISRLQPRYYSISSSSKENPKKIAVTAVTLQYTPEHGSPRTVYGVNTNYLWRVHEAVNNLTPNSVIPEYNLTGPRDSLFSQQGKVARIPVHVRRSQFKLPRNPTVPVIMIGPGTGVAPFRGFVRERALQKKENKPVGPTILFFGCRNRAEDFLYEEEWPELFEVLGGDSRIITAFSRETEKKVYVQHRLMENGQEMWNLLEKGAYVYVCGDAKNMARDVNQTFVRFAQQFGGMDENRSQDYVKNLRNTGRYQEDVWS

[2] = biological target: T2, RaCYP51-F5 + RaCPR (strain Y-F5/CPR and variants) (Rhizopus delemar, UniProt I1CTV4, A291V/F129Y); test: as above; format: biochemical
T2 construct: gene RO3G_16595; full-length, codon-optimized, C-terminal GGR linker and 6xHis; co-expressed with 6xHis RaCPR in S. cerevisiae ADΔΔ deleted of native ERG11; crude membranes; ~60 kDa; with NADPH--cytochrome P450 reductase
T2 sequence (I1CTV4 whole entry, stated change not applied): as the sequence (I1CTV4 whole entry, stated change not applied) above
T2 sequence (I1CM61 whole entry, stated change not applied, further chain): as the sequence (I1CM61 whole entry, stated change not applied, further chain) above

[3] = biological target: T3, RaCYP51-F5 + RaCPR (strain Y-F5/CPR and variants) (Rhizopus delemar, UniProt I1CTV4, F129Y); test: as above; format: biochemical
T3 construct: gene RO3G_16595; full-length, codon-optimized, C-terminal GGR linker and 6xHis; co-expressed with 6xHis RaCPR in S. cerevisiae ADΔΔ deleted of native ERG11; crude membranes; ~60 kDa; with NADPH--cytochrome P450 reductase
T3 sequence (I1CM61 whole entry, stated change not applied): as the sequence (I1CM61 whole entry, stated change not applied, further chain) above
T3 sequence (I1CTV4 whole entry, stated change not applied): as the sequence (I1CTV4 whole entry, stated change not applied) above

[4] = biological target: T4, RaCYP51-F1 + RaCPR (strain Y-F1/CPR) (Rhizopus delemar, UniProt I1CF49); test: as above; format: biochemical
T4 construct: gene RO3G_11790; full-length, codon-optimized, C-terminal GGR linker and 6xHis; co-expressed with 6xHis RaCPR in S. cerevisiae ADΔΔ deleted of native ERG11; crude membranes; ~60 kDa; with NADPH--cytochrome P450 reductase
Description: inhibition of BOMCC hydrolysis in crude membranes, fluorescence on RaCYP51-F1 + RaCPR (strain Y-F1/CPR)

[5] = biological target: T5, partially purified RaCYP51-F5 (Rhizopus delemar, UniProt I1CTV4); test: type II difference spectrum (Soret red shift); format: binding; settings: 1.0 µM enzyme, 40 µM azole (saturating); heme iron coordination
T5 construct: gene RO3G_16595; full-length, codon-optimized, C-terminal GGR linker and 6xHis; expressed in S. cerevisiae ADΔΔ; Ni-NTA purified from n-decyl-β-D-maltoside extract; ~60 kDa
T5 sequence (I1CTV4 entry or part of it): as the sequence (I1CTV4 whole entry, stated change not applied) above

[6] = biological target: T6, RaCYP51-F5 + RaCPR (strain Y-F5/CPR and variants) (Rhizopus delemar, UniProt I1CTV4); test: biochemical
T6 construct: gene RO3G_16595
Description: inhibition of BOMCC hydrolysis in crude membranes, fluorescence on RaCYP51-F5 + RaCPR (strain Y-F5/CPR and variants)

| SMILES | IC50 [1] [nM] | IC50 [2] [nM] | IC50 [3] [nM] | IC50 ([4]; read-out: Voriconazole IC50) [nM] | type II difference spectrum (Soret red shift) [5] | IC50 [6] [nM] | IC50 ([4]; read-out: Posaconazole IC50) [nM] |
| --- | --- | --- | --- | --- | --- | --- | --- |
| C[C@@H](c1ncncc1F)[C@](O)(Cn1cncn1)c1ccc(F)cc1F [voriconazole] | 500 | 60 ± 14 | 140 ± 57 | 100 ± 70 | bound posaconazole or voriconazole upon exposure to saturating levels of these drugs | > 1000 |  |
| CC[C@@H]([C@H](C)O)n1ncn(-c2ccc(N3CCN(c4ccc(OC[C@@H]5CO[C@@](Cn6cncn6)(c6ccc(F)cc6F)C5)cc4)CC3)cc2)c1=O [posaconazole] | 55 ± 7 | 63 | 75 ± 35 |  | bound posaconazole or voriconazole upon exposure to saturating levels of these drugs | 56 ± 28 | 21 ± 11 |
